Where “and” joins values, the source holds several entries; their conditions need not be identical. Equal values may be shown once. Toxic doses and inconclusive results are not listed.
Test system: P388 leukemia ip, CD2F1 mice, survival T/C
Test: NCI In Vivo Anticancer Drug Screen. Data for tumor model P388 Leukemia (intraperitoneal) in CD2F1 (CDF1) mice
Conditions: endpoint: median survival time, higher = longer survival
In short: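 Mice carrying the transplanted tumor received test compound or vehicle. Survival was recorded in each group, and the value is the treated-group measurement divided by that of the vehicle-treated control group.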

[1] = dose: 60.0 mg/kg/injection, schedule: Q01DX005 (ip), vehicle: saline with Tween-80
[2] = dose: 120.0 mg/kg/injection, schedule: Q01DX005 (ip), vehicle: saline with Tween-80
[3] = dose: 240.0 mg/kg/injection, schedule: Q01DX005 (ip), vehicle: saline with Tween-80
[4] = dose: 50.0 mg/kg/injection, schedule: Q01DX009 (ip), vehicle: saline with Tween-80
[5] = dose: 100.0 mg/kg/injection, schedule: Q01DX009 (ip), vehicle: saline with Tween-80
[6] = dose: 200.0 mg/kg/injection, schedule: Q01DX009 (ip), vehicle: saline with Tween-80
[7] = dose: 12.5 mg/kg/injection, schedule: Q01DX009 (ip), vehicle: Klucel (hydroxypropylcellulose) (HPC)
[8] = dose: 25.0 mg/kg/injection, schedule: Q01DX009 (ip), vehicle: Klucel (hydroxypropylcellulose) (HPC)
[9] = dose: 50.0 mg/kg/injection, schedule: Q01DX009 (ip), vehicle: Klucel (hydroxypropylcellulose) (HPC)
[10] = dose: 25.0 mg/kg/injection, schedule: Q04DX003 (ip), vehicle: saline with Tween-80
[11] = dose: 200.0 mg/kg/injection, schedule: Q04DX003 (ip), vehicle: saline with Tween-80
[12] = dose: 100.0 mg/kg/injection, schedule: Q04DX003 (ip), vehicle: saline with Tween-80
[13] = dose: 400.0 mg/kg/injection, schedule: Q04DX003 (ip), vehicle: saline with Tween-80
[14] = dose: 15.0 mg/kg/injection, schedule: Q01DX005 (ip), vehicle: saline with Tween-80
[15] = dose: 30.0 mg/kg/injection, schedule: Q01DX005 (ip), vehicle: saline with Tween-80
[16] = dose: 6.25 mg/kg/injection, schedule: Q01DX009 (ip), vehicle: saline with Tween-80
[17] = dose: 12.5 mg/kg/injection, schedule: Q01DX009 (ip), vehicle: saline with Tween-80
[18] = dose: 25.0 mg/kg/injection, schedule: Q01DX009 (ip), vehicle: saline with Tween-80
[19] = dose: 60.0 mg/kg/injection, schedule: Q01DX005 (ip), vehicle: saline

## CSc1nc(NC2OC(COC(C)=O)C(OC(C)=O)C(OC(C)=O)C2OC(C)=O)c(N=CC=Nc2c(NC3OC(COC(C)=O)C(OC(C)=O)C(OC(C)=O)C3OC(C)=O)nc(SC)[nH]c2=O)c(=O)[nH]1 (stereo not drawn)
[1]
  T/C: 89 % of control
[2]
  T/C: 99 % of control
[3]
  T/C: 111 % of control

## NC(=O)NC(c1ccccc1)C(O)(c1ccccc1)c1ccccc1 (stereo not drawn)
[4]
  T/C: 87 % of control
[5]
  T/C: 93 % of control
[6]
  T/C: 96 % of control

## O=c1c2ccccc2nc(-c2ccccc2)n1O
[7]
  T/C: 103 % of control and 112 % of control
[8]
  T/C: 118 % of control and 94 % of control
[9]
  T/C: 120 % of control
dose: 100.0 mg/kg/injection, schedule: Q01DX009 (ip), vehicle: Klucel (hydroxypropylcellulose) (HPC)
  T/C: 94 % of control
dose: 200.0 mg/kg/injection, schedule: Q01DX009 (ip), vehicle: Klucel (hydroxypropylcellulose) (HPC)
  T/C: 91 % of control

## C=CC(N)[Si](CC)(CC)CC (stereo not drawn)
[1]
  T/C: 106 % of control
[2]
  T/C: 101 % of control

## COc1cc(C/C=C/c2ccccc2)c(OC)cc1O
dose: 2.5 mg/kg/injection, schedule: Q01DX009 (ip), vehicle: saline with Tween-80
  T/C: 91 % of control
dose: 5.0 mg/kg/injection, schedule: Q01DX009 (ip), vehicle: saline with Tween-80
  T/C: 102 % of control
dose: 10.0 mg/kg/injection, schedule: Q01DX009 (ip), vehicle: saline with Tween-80
  T/C: 101 % of control

## COc1cccc2c1C(=O)c1c(O)c3c(c(O)c1C2=O)C[C@@](O)(/C=N\O)C[C@@H]3OC1CC(N)C(O)C(C)O1 (stereo partly drawn)
dose: 3.13 mg/kg/injection, schedule: Q04DX003 (ip), vehicle: water
  T/C: 109 % of control
dose: 6.25 mg/kg/injection, schedule: Q04DX003 (ip), vehicle: water
  T/C: 118 % of control
dose: 12.5 mg/kg/injection, schedule: Q04DX003 (ip), vehicle: water
  T/C: 116 % of control
dose: 25.0 mg/kg/injection, schedule: Q04DX003 (ip), vehicle: water
  T/C: 111 % of control
dose: 50.0 mg/kg/injection, schedule: Q04DX003 (ip), vehicle: water
  T/C: 163 % of control

## CCCCOP(O)(=S)OCCCC.[Yb]
dose: 100.0 mg/kg/injection, schedule: Q04DX002 (ip), vehicle: saline with Tween-80
  T/C: 96 % of control
dose: 200.0 mg/kg/injection, schedule: Q04DX002 (ip), vehicle: saline with Tween-80
  T/C: 101 % of control
dose: 400.0 mg/kg/injection, schedule: Q04DX002 (ip), vehicle: saline with Tween-80
  T/C: 99 % of control

## CC(O)C(=O)O (stereo not drawn)
dose: 0.06 % in 0.5 ml injection vol, schedule: Q01DX009 (ip), vehicle: water
  T/C: 98 % of control and 100 % of control
dose: 0.12 % in 0.5 ml injection vol, schedule: Q01DX009 (ip), vehicle: water
  T/C: 107 % of control and 95 % of control
dose: 0.25 % in 0.5 ml injection vol, schedule: Q01DX009 (ip), vehicle: water
  T/C: 93 % of control
dose: 0.5 % in 0.5 ml injection vol, schedule: Q01DX009 (ip), vehicle: water
  T/C: 99 % of control and 100 % of control
dose: 4.0 % in 0.5 ml injection vol, schedule: Q01DX009 (ip), vehicle: water
  T/C: 100 % of control
dose: 8.0 % in 0.5 ml injection vol, schedule: Q01DX009 (ip), vehicle: water
  T/C: 99 % of control and 100 % of control

## O=C(O)/C(O)=C/c1ccccc1
[10]
  T/C: 102 % of control
[11]
  T/C: 111 % of control

## COc1cccc(CSC(=N)N)c1
[7]
  T/C: 109 % of control
[8]
  T/C: 99 % of control
[9]
  T/C: 100 % of control and 110 % of control

## CC(=O)N(OS(C)(=O)=O)C1CCCCC1
dose: 50.0 mg/kg/injection, schedule: Q01DX007 (ip), vehicle: saline with Tween-80
  T/C: 92 % of control
dose: 100.0 mg/kg/injection, schedule: Q01DX007 (ip), vehicle: saline with Tween-80
  T/C: 100 % of control
dose: 200.0 mg/kg/injection, schedule: Q01DX007 (ip), vehicle: saline with Tween-80
  T/C: 90 % of control

## [NH-][n+]1c2c(nc3ccccc31)-c1cccc3cccc-2c13
dose: 50.0 mg/kg/injection, schedule: Q01DX005 (ip), vehicle: Klucel (hydroxypropylcellulose) (HPC)
  T/C: 103 % of control
dose: 100.0 mg/kg/injection, schedule: Q01DX001 (ip), vehicle: Klucel (hydroxypropylcellulose) (HPC)
  T/C: 97 % of control
dose: 100.0 mg/kg/injection, schedule: Q01DX005 (ip), vehicle: Klucel (hydroxypropylcellulose) (HPC)
  T/C: 112 % of control
dose: 200.0 mg/kg/injection, schedule: Q01DX001 (ip), vehicle: Klucel (hydroxypropylcellulose) (HPC)
  T/C: 100 % of control
dose: 200.0 mg/kg/injection, schedule: Q01DX005 (ip), vehicle: Klucel (hydroxypropylcellulose) (HPC)
  T/C: 105 % of control
dose: 400.0 mg/kg/injection, schedule: Q01DX001 (ip), vehicle: Klucel (hydroxypropylcellulose) (HPC)
  T/C: 102 % of control

## CCOC(=O)C1=C(C)NC(CO)=C(C(=O)OCC)C1c1cccc([N+](=O)[O-])c1 (stereo not drawn)
dose: 50.0 mg/kg/injection, schedule: Q01DX005 (ip), vehicle: saline with Tween-80
  T/C: 94 % of control
dose: 100.0 mg/kg/injection, schedule: Q01DX005 (ip), vehicle: saline with Tween-80
  T/C: 95 % of control
dose: 200.0 mg/kg/injection, schedule: Q01DX005 (ip), vehicle: saline with Tween-80
  T/C: 92 % of control

## COc1ccc(CCN2C(=O)CSC2=S)cc1OC
[5]
  T/C: 100 % of control
[12]
  T/C: 90 % of control
[6]
  T/C: 90 % of control
[11]
  T/C: 90 % of control
[13]
  T/C: 90 % of control

## CCOC(=O)C(=CNc1ccccn1)C(=O)OCC
[5]
  T/C: 95 % of control
[6]
  T/C: 100 % of control
dose: 400.0 mg/kg/injection, schedule: Q01DX009 (ip), vehicle: saline with Tween-80
  T/C: 113 % of control

## CCCCCn1cnc2c(=S)nc[nH]c21
[12]
  T/C: 104 % of control
[11]
  T/C: 100 % of control
[13]
  T/C: 90 % of control

## O=C(Nc1cc2cc([N+](=O)[O-])ccc2oc1=O)c1cccs1
[14]
  T/C: 99 % of control
[15]
  T/C: 90 % of control
[1]
  T/C: 91 % of control

## CN(C)c1cccc2c(S(=O)(=O)NCCCCCCCCCCCCNS(=O)(=O)c3cccc4c(N(C)C)cccc34)cccc12
[14]
  T/C: 96 % of control
[15]
  T/C: 92 % of control
[1]
  T/C: 87 % of control
[3]
  T/C: 88 % of control

## O=CC(Br)C(Br)c1ccccc1 (stereo not drawn)
[16]
  T/C: 122 % of control
dose: 6.25 mg/kg/injection, schedule: Q04DX003 (ip), vehicle: saline with Tween-80
  T/C: 109 % of control
[17]
  T/C: 109 % of control
dose: 12.5 mg/kg/injection, schedule: Q04DX003 (ip), vehicle: saline with Tween-80
  T/C: 109 % of control
[18]
  T/C: 100 % of control
[10]
  T/C: 113 % of control

## CCCCN(CCCC)CCC(O)c1cc(C(F)(F)F)nc2c(C(F)(F)F)cccc12 (stereo not drawn)
[4]
  T/C: 104 % of control
[5]
  T/C: 114 % of control
[6]
  T/C: 100 % of control

## CC(=O)[OH+]c1c(I)cc(I)cc1C(=O)[O-].CC(=O)[OH+]c1c(I)cc(I)cc1C(=O)[O-].[Cu+2]
dose: 15.0 mg/kg/injection, schedule: Q01DX005 (ip), vehicle: saline
  T/C: 106 % of control
dose: 30.0 mg/kg/injection, schedule: Q01DX005 (ip), vehicle: saline
  T/C: 92 % of control
[19]
  T/C: 106 % of control and 109 % of control

## Nc1cccc(S(=O)(=O)N/N=C/C(=O)O)c1
dose: 12.5 mg/kg/injection, schedule: Q01DX009 (ip), vehicle: water
  T/C: 111 % of control
dose: 25.0 mg/kg/injection, schedule: Q01DX009 (ip), vehicle: water
  T/C: 116 % of control
dose: 50.0 mg/kg/injection, schedule: Q01DX009 (ip), vehicle: water
  T/C: 119 % of control
dose: 100.0 mg/kg/injection, schedule: Q01DX009 (ip), vehicle: water
  T/C: 117 % of control

## O=C(O)c1cc(CCCC(=O)c2cc(C(=O)O)c(O)c3ccccc23)c2ccccc2c1O
dose: 100.0 mg/kg/injection, schedule: Q04DX002 (ip), vehicle: Klucel (hydroxypropylcellulose) (HPC)
  T/C: 90 % of control

## O=C1c2c(Cl)c(Cl)c(Cl)c(Cl)c2C(=O)N1O
[16]
  T/C: 100 % of control
[17]
  T/C: 100 % of control
[18]
  T/C: 104 % of control

## COc1ccc(/C=N/N2CN(C(C)C(=O)O)C(C)(O)N=C2N)cc1OC (stereo not drawn)
[19]
  T/C: 102 % of control
dose: 120.0 mg/kg/injection, schedule: Q01DX005 (ip), vehicle: saline
  T/C: 104 % of control
dose: 240.0 mg/kg/injection, schedule: Q01DX005 (ip), vehicle: saline
  T/C: 103 % of control

Source: PubChem BioAssay AID330 (DTP/NCI, 2004)
